# Laboratory results as given in PubChem BioAssay (NCI).
# Values joined by “and” are separate entries in the source; they are usually repeats but may differ in a detail not shown here. Equal values may be shown once.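 Where inhibition never reached the appropriate level, the endpoint shown equals the highest concentration tested. Otherwise, values were interpolated linearly from a five-concentration, 48-hour dose response in 96-well plates. GI50 = concentration required for 50% inhibition of growth. The concentration for full growth arrest is given as TGI.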 Where a SMILES comes first, the peptide text is derived from it. [ ]: non-standard residue; d: D form. 2Nal = N[CH](Cc1ccc2ccccc2c1)C(=O)O
# Legend:
# Assay in all cases: DTP human tumour cell line panel, 48 h
# [1] = tested on: 786-0 renal
# [2] = tested on: A498 renal
# [3] = tested on: CCRF-CEM leukemia
# [4] = tested on: K-562 leukemia
# [5] = tested on: KM12 colon
# [6] = tested on: LOX IMVI melanoma
# [7] = tested on: NCI-H460 lung
# [8] = tested on: OVCAR-5 ovarian
# [9] = tested on: RPMI-8226 leukemia
# [10] = tested on: UO-31 renal
SMILES,GI50 [1],TGI [1],TGI [2],GI50 [3],TGI [3],GI50 [4],TGI [4],GI50 [5],TGI [5],GI50 [6],TGI [6],GI50 [7],TGI [7],GI50 [8],TGI [8],GI50 [9],TGI [9],GI50 [10],TGI [10],GI50 [2]
NC(N)=NC(N)=NCCc1ccccc1,> 100 µM,> 100 µM,> 100 µM,56.1 µM and > 100 µM,> 100 µM,66.6 µM and 30.8 µM,> 100 µM,> 100 µM,> 100 µM,> 100 µM,> 100 µM,> 100 µM,> 100 µM,> 100 µM,> 100 µM,11.1 µM and 7.54 µM,> 100 µM,98.9 µM and 38.5 µM,> 100 µM,
O=C=Nc1ccc(Cc2ccc(N=C=O)cc2)cc1 (tested in a mixture with another compound),> 25 µg/mL,> 25 µg/mL,> 25 µg/mL,> 25 µg/mL,> 25 µg/mL,12.3 µg/mL,> 25 µg/mL,> 25 µg/mL,> 25 µg/mL,> 25 µg/mL,> 25 µg/mL,> 25 µg/mL,> 25 µg/mL,> 25 µg/mL,> 25 µg/mL,> 25 µg/mL,> 25 µg/mL,> 25 µg/mL,> 25 µg/mL,> 25 µg/mL
O=C(N/N=C/c1cc2ccccc2c2ccccc12)c1cc(O)c(O)c(O)c1,2.77 µM,7.2 µM,27 µM,2.87 µM,> 100 µM,3.57 µM,51 µM,8.24 µM,22.9 µM,2.38 µM,5.98 µM,3.8 µM,18 µM,8.85 µM,25.7 µM,7.47 µM,46.1 µM,2.64 µM,16.5 µM,13.3 µM
COC(=O)C1CCc2c(OC)ccc(OC)c2C1=O (configuration not stated),,> 100 µM,> 100 µM,,> 100 µM,,> 100 µM,,> 100 µM,,> 100 µM,,> 100 µM,,> 100 µM,,> 100 µM,,> 100 µM,
C/C=C(/C)C(=O)OC1C=C(CO)C(=O)C(OC(=O)/C(C)=C\C)C1C(C)C (configuration not stated),1.08 µM,2.63 µM,2.95 µM,0.321 µM,4.19 µM,0.401 µM,19.2 µM,1.45 µM,3.02 µM,0.604 µM,1.75 µM,1.25 µM,2.94 µM,0.976 µM,2.5 µM,0.337 µM,1.37 µM,1.29 µM,2.57 µM,1.55 µM
CC(NC(=O)C(N)Cc1ccccc1)C(=O)NC(Cc1ccc(O)cc1)C(=O)NC(Cc1c[nH]c2ccccc12)C(=O)NC(CCCCN)C(=O)NC(C(=O)NC(C)C(=O)NC(Cc1ccc2ccccc2c1)C(N)=O)C(C)C (configuration not stated) (H-FAYWKVA[2Nal]-NH2; configuration not given here),24.8 µM,> 12.5 µM and 65.1 µM,> 12.5 µM and 49.4 µM,16 µM,> 12.5 µM and 29.4 µM,16.9 µM,> 12.5 µM and 30.5 µM,21.9 µM,> 12.5 µM and 53.3 µM,,> 12.5 µM,22.7 µM,> 12.5 µM and 52.3 µM,,> 12.5 µM,16.3 µM,> 12.5 µM and 30.4 µM,27.1 µM,> 12.5 µM and 58.6 µM,19.4 µM
